Measured values from patent US7432302B2, “Composition containing polyamine transport inhibitor and use thereof” (MediQuest Therapeutics, Inc., priority 2001, dated 2008).
Like-named read-outs stand apart in the source and are kept apart here.

Assays:
[1] = tested on: cell growth in the presence of DFMO; experiment: Growth inhibition assay in combination with DFMO; assay type: cell-based; details: 144 h; note: 0.5 µM SPD
Experimental: Medias were obtained from Mediatech, Inc. (Hemdon, Va.) and serums from Gibco BRL (Gaithersburg, Md.). 50 U/ml penicillin, 50 μg/ml streptomycin and 2 mM L-glutamine (all from Bio Whittaker, Walkersville, Md.) were included in all cultures. […] When cells were cultured with polyamines or ORI compounds, 1 mM aminoguanidine (AG; Sigma) was included to inhibit serum amine oxidase activity.

[2] = tested on: epidermal ornithine decarboxylase activity; details: topical application of 20 μmole 2 hr after the TPA treatment; cited from earlier work
[3] = tested on: cultured hair follicles; details: 50 μM polyamine added to MGBG (10 mM) treated cultured hair follicles; cited from earlier work
[4] = biological target: T1, spermidine synthase (Homo sapiens, UniProt P19623); details: cited from earlier work
T1 sequence (P19623 1-302): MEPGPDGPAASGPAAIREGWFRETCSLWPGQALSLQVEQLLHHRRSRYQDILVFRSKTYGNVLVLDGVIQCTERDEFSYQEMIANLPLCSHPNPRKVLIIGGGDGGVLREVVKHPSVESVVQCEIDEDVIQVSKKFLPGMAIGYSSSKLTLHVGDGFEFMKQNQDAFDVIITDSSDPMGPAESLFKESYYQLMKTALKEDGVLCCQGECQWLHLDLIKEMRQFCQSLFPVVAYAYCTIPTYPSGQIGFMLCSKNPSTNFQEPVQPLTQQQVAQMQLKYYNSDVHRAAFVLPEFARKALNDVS

[5] = tested on: hair regrowth; experiment: Animal hair growth inhibition assay; assay type: in vivo, mice
[6] = tested on: cell growth when given with DFMO; experiment: EC50 determined as disclosed in Weeks et al. (cell growth when given with DFMO); assay type: cell-based; details: determined as in Weeks et al. Exp Cell Res. 2000
[7] = biological target: T2, ornithine decarboxylase (ODC) (Homo sapiens, UniProt P11926); details: reversible / cofactor-interaction ODC inhibitors, literature; cited from earlier work
T2 sequence (P11926 1-461): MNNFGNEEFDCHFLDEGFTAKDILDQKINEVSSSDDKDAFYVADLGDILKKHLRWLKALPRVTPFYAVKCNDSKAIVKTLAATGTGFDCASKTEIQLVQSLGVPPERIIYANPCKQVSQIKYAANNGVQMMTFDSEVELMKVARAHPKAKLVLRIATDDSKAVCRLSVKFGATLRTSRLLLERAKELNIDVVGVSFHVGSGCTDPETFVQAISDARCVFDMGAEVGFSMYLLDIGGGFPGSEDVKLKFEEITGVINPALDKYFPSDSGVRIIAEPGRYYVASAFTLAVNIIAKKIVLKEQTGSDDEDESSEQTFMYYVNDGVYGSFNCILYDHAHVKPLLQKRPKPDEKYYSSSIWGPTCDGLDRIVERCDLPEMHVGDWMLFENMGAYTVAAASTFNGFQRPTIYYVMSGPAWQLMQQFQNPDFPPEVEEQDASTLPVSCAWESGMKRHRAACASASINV

[8] = tested on: cultured follicles; details: cited from earlier work
[9] = tested on: fiber growth; details: sheep treated systemically; cited from earlier work
[10] = tested on: L1210 leukemia cells; details: cited from earlier work
[11] = compound with DFMO at 2%, 70% ethanol, pH 7.0, applied once a day for 18 days
[12] = mutant L1210 cells with greatly reduced polyamine transport activity
[13] = no additional biosynthesis inhibitor (None, or antizyme inducer; agmatine 2%), once a day for 18 days

## NCCCNCCCCNCCCNC(=O)[C@H](N)CCCCNC(=O)C(c1ccccc1)c1ccccc1 [IB29]
[1]; read-out: Ave EC50 value
  EC50: 2100 nM

## NCCCNCCCCNCCCNC(=O)[C@H](N)CCCCNC(=O)CC1CC2CCC1C2 (stereo partly shown) [IB37]
[1]; read-out: Ave EC50 value
  EC50: 41000 nM

## CCCCCCNCCCC[C@@H](N)C(=O)NCCCNCCCCNCCCN [IVB5]
[1]; read-out: Ave EC50 Value
  EC50: 710 nM

## NCCCNCCCCNCCCNC(=O)[C@H](N)CCCCNC(=O)c1ccccc1 [IB24]
[1]; read-out: Ave EC50 value
  EC50: 30000 nM

## NCCCCNCCCN [spermidine]
[2]
  inhibition of the induction of ODC activity: 90%
[3]
  recovery of DNA synthesis: Complete recovery of DNA synthesis

## NCCCNCCCCNCCCNC(=O)[C@H](N)CCCCNC(=O)c1ccco1 [IB25]
[1]; read-out: Ave EC50 value
  EC50: 10000 nM

## C=CCCCN [5-amino-1-pentene]
[4]
  IC50: respectable activity

## C[C@H]1CC[C@H](N)CC1 [trans-4-methylcyclohexylamine]
[4]; read-out: IC50
  IC50: 1.7 µM

## CCCCCCCCCCCCCCCCCC(=O)NCCCC[C@@H](N)C(=O)NCCCNCCCCNCCCN [IB2]
[1]; read-out: Ave EC50 value
  EC50: 83 nM

## NCCCNCCCCNCCCNC(=O)[C@H](N)CCCCNCC1CC2C=CC1C2 (stereo partly shown) [IVB25]
[1]; read-out: Ave EC50 Value
  EC50: 890 nM

## CCCCCCCC(=O)NCCCC[C@@H](N)C(=O)NCCCNCCCCNCCCN [IB7]
[1]; read-out: Ave EC50 value
  EC50: 13000 nM

## CCCCCCCC(=O)NCCCC[C@H](N)C(=O)NCCCNCCCCNCCCN [MQT 5]
[5]; [11]
  % HGI: 47%
[6]
  EC50: 2200 nM

## NC1CCC(N)(C(=O)O)CC1 (stereo not drawn) [trans-1,4-diaminocyclohexane-1-carboxylic acid]
[7]
  Ki: 70000 nM

## CCCCCN [1-pentylamine]
[4]; read-out: IC50
  IC50: 3.6 µM

## CC(C)(C)CC(=O)NCCCC[C@@H](N)C(=O)NCCCNCCCCNCCCN [IB36]
[1]; read-out: Ave EC50 value
  EC50: 27000 nM

## NCCCNCCCCNCCCNC(=O)[C@H](N)CCCCNC(=O)C12CC3CC(CC(C3)C1)C2 [IB30]
[1]; read-out: Ave EC50 value
  EC50: 2000 nM

## NC1CC2CCC1C2 (stereo not drawn) [exo-2-aminonorbornane]
[4]; read-out: IC50
  IC50: 5.5 µM

## NCCCCCCCN [1,7-diaminoheptane]
[2]
  inhibition of the induction of ODC activity: 90%

## NC/C=C/C(N)C(=O)O (stereo not drawn) [trans-3-dehydroornithine]
[7]
  Ki: 4400 nM

## NCCCNCCCCNCCCNC(=O)[C@@H](N)CCCCNCC1CCCCC1 [MQT 3]
[5]; compound with BHT 0.5%, 70% ethanol, pH 7.0, once a day for 18 days
  % HGI: 68%
[5]; [11]
  % HGI: 93%
[6]
  EC50: 780 nM

## CCCCN [Compound 1-butylamine, 1-butylamine]
[4]
  Ki: 520 nM
[4]; read-out: IC50
  IC50: 3.8 µM

## NCCCNCCCCNCCCNC(=O)[C@H](N)CCCCNCC1CCCCC1 [IVB27]
[1]; read-out: Ave EC50 Value
  EC50: 610 nM

## NCCCNCCCCNCCCNC(=O)[C@H](N)CCCCNCc1ccc(-c2ccccc2)cc1 [IVB33]
[1]; read-out: Ave EC50 Value
  EC50: 1380 nM

## CC(C)C(=O)NCCCC[C@@H](N)C(=O)NCCCNCCCCNCCCN [IB33]
[1]; read-out: Ave EC50 value
  EC50: 8400 nM

## NCCCNCCCCNCCCN [spermine]
[2]
  inhibition of the induction of ODC activity: 90%
[3]
  recovery of DNA synthesis: did not overcome the MGBG-mediated inhibition

## CC(C)CCNCCCC[C@@H](N)C(=O)NCCCNCCCCNCCCN [IVB21]
[1]; read-out: Ave EC50 Value
  EC50: 1320 nM

## NCCCC(NN)C(=O)O (stereo not drawn) [α-Hydrazinoornithine]
[7]
  Ki: 500 nM

## NCCCCN [putrescine]
[2]
  inhibition of the induction of ODC activity: 50%

## NCCC[C@](N)(C(=O)O)C(F)F [DFMO, α-difluoromethylornithine]
[5]; biosynthesis inhibitor alone, compound None (DFMO at 2%; Vaniqua 13.9% DFMO)
  % HGI: 28%
[8]; in culture media: DFMO 500 μM, N-butyl-1,3-diaminopropane 50 μM
  effect on the growth of cultured follicles: no effect
[9]
  fiber diameter increase: 14%
  fiber growth decline: 10%
[10]; [12]
  increase in median survival time: 87%
  mice cured: 13 of 40
[10]; parental L1210 cell line
  increase in median survival time: 22%

## CC(C)[C@@H]1CC[C@@H](C)CC1NCCCC[C@@H](N)C(=O)NCCCNCCCCNCCCN (stereo partly shown) [VB28]
[1]; read-out: Ave EC50 Value
  EC50: 1450 nM

## NC1CCCCC1 [cyclohexylamine]
[4]; read-out: IC50
  IC50: 8.1 µM

## CCCCCCCCC(=O)NCCCC[C@@H](N)C(=O)NCCCNCCCCNCCCN [IB6]
[1]; read-out: Ave EC50 value
  EC50: 2200 nM

## CCCCNCCCC[C@@H](N)C(=O)NCCCNCCCCNCCCN [IVB3]
[1]; read-out: Ave EC50 Value
  EC50: 2190 nM

## NCCCON [1-Aminooxy-3-aminopropane]
[7]
  Ki: 3.2 nM

## NCCCNCCCCNCCCNC(=O)[C@H](N)CCCCNC(=O)c1ccc(-c2ccccc2)cc1 [IB26]
[1]; read-out: Ave EC50 value
  EC50: 1100 nM

## CC(C)=CCC[C@H](C)CCNCCCC[C@@H](N)C(=O)NCCCNCCCCNCCCN [IVB28]
[1]; read-out: Ave EC50 Value
  EC50: 12800 nM

## CC(C)(C)CCNCCCC[C@@H](N)C(=O)NCCCNCCCCNCCCN [IVB22]
[1]; read-out: Ave EC50 Value
  EC50: 680 nM

## CC(C)(C)CNCCCC[C@@H](N)C(=O)NCCCNCCCCNCCCN [IVB24]
[1]; read-out: Ave EC50 Value
  EC50: 1320 nM

## CC(C)[C@@H]1CC[C@@H](C)C[C@H]1OCC(=O)NCCCC[C@@H](N)C(=O)NCCCNCCCCNCCCN [IB38]
[1]; read-out: Ave EC50 value
  EC50: 13000 nM

## CC(N)CCON (stereo not shown) [1-Aminooxy-3-aminobutane]
[7]
  Ki: 2.8 nM

## C[C@](N)(CCCN)C(=O)O [α-methylornithine]
[7]
  Ki: 40000 nM

## CCCC(CCC)NCCCC[C@H](N)C(=O)NCCCNCCCCNCCCN [VA26]
[1]; read-out: Ave EC50 Value
  EC50: 4140 nM

## NCCCCCCNCCCCCCNCc1ccc(CNCCCN)cc1 [MQT 7]
[5]; [13]
  % HGI: 94%

## CCCCCCCNCCCC[C@@H](N)C(=O)NCCCNCCCCNCCCN [IVB6]
[1]; read-out: Ave EC50 Value
  EC50: 890 nM

## NCCCCCCNCCCCCNCCN [MQT 8]
[5]; [13]
  % HGI: 53%

## CC(C)CC(C)NCCCCC(N)C(=O)NCCCNCCCCNCCCN (single isomer, unassigned) [VA21]
[1]; read-out: Ave EC50 Value
  EC50: 650 nM
[1]; read-out: Ave EC50 value
  EC50: 650 nM

## CC(C)CNCCCC[C@@H](N)C(=O)NCCCNCCCCNCCCN [IVB23]
[1]; read-out: Ave EC50 Value
  EC50: 1790 nM

## CCCCCCCNCCCC[C@H](N)C(=O)NCCCNCCCCNCCCN [MQT 6]
[5]; [11]
  % HGI: 79%
[6]
  EC50: 380 nM

## CC(C)(C)C(=O)NCCCC[C@@H](N)C(=O)NCCCNCCCCNCCCN [IB34]
[1]; read-out: Ave EC50 value
  EC50: 8500 nM

## CCCCCCC(=O)NCCCC[C@@H](N)C(=O)NCCCNCCCCNCCCN [IB8]
[1]; read-out: Ave EC50 value
  EC50: 3500 nM

## CCCCCC(=O)NCCCC[C@@H](N)C(=O)NCCCNCCCCNCCCN [IB9]
[1]; read-out: Ave EC50 value
  EC50: 12000 nM

## CCCCCCCCCCCCCCCC(=O)NCCCC[C@@H](N)C(=O)NCCCNCCCCNCCCN [IB4]
[1]; read-out: Ave EC50 value
  EC50: 84 nM

## CCCCCCCCCCCCCCCC(=O)NCCCC[C@H](N)C(=O)NCCCNCCCCNCCCN [MQT 2]
[5]; [11]
  % HGI: 97%
[6]
  EC50: 44 nM

## CC(C)(C)CCNCCCC[C@H](N)C(=O)NCCCNCCCCNCCCN [MQT 4]
[5]; [11]
  % HGI: 63%
[5]; [13]
  % HGI: 66%
[6]
  EC50: 1600 nM

## N=C(N)NCCCCN [Agmatine, reference compound]
[5]; [13]
  % HGI: 30%

## CC(/C=N/NC(=N)N)=N\NC(=N)N [MGBG, methylglycoxal bis(guanylhydrazone)]
[8]
  ED50, inhibition of the growth of cultured follicles: ~5 µM
